Columns and labels:
[1] = test system: COL1A1, PAI-1, TNC, LRRC15 transcripts in A549 lung cancer cells; test: TGF-β-induced transcripts in A549 tumor cells (RT-PCR); assay type: cell-based, human
Procedure: Indicated gene transcripts were assessed by RT-PCR relative to GAPDH. Data were normalized to expression after TGF-β-treatment in the presence of only DMSO. Data are presented as mean of 3 biological replicates, and error bars indicate standard deviation. The graphs are representative of at least 2 independent experiments. *P<0.05; ** P<0.01, ***P<0.001; ****P<0.0001 by student's t-test.
(§1) Cells were directly lysed in Qiagen™ Buffer RLT Plus with 1% 2-Mercaptoethanol added. Total RNA from tumor samples and cell lines was isolated using Qiagen™ AllPrep® DNA/RNA 96 Kit according to manufacturer's protocol. Isolated RNA was analyzed with NanoDrop™ ONE Spectrophotometer for concentration. The RNA integrity was also analyzed on Agilent TapeStation 4200.
(§2) Complimentary deoxyribonucleic acid (cDNA) was prepared by using Invitrogen™ SuperScript™ III First-Strand Synthesis SuperMix for qRT-PCR. Up to 1 μg of RNA was prepared according to manufacturer's protocol, using Applied Biosystems™ Veriti™ 96-well thermal cycler. The reverse transcription (RT) program used for cDNA synthesis: • 1. 25° C., 10 minutes • 2. 50° C., 30 minutes • 3. 85° C., 5 minutes • 4. Add E. Coli RNase H, 37° C., 20 minutes • 5. Hold at 4° C. Quantitative Reverse Transcription Polymerase Chain Reaction (qRT-PCR).
(§3) The cDNA was diluted 1:3 fold in nuclease-free water for quantitative polymerase chain reaction (qPCR) setup. Human and mouse TaqMan™ assays for targeted genes were ordered through Applied Biosystems™. TaqMan™ assay selection was based on manufacturer's recommendation. The qRT-PCR was set up using Applied Biosystems™ TaqMan™ Fast Advanced Master Mix according to manufacturer's protocol. The qRT-PCR was run on QuantStudio™ 12 Flex with fast run mode: • 1. 95° C., 20 seconds • 2. 95° C., 1 second • 3. 60° C., 20 seconds • 4. Repeat steps 2-3, 39 times
(§4) The qPCR data was analyzed, and all cycle threshold (Ct) values were normalized to glyceraldehyde-3-phosphate dehydrogenase (GAPDH) (ΔCt). Analysis was plotted and presented using GraphPad Prism (GraphPad, Version 8.4.1, San Diego, CA).
The RNA expression was assessed 24 hours after TGF-β treatment.

[2] = test system: TNC, ACTA2, PAI-1 transcripts in lung cancer-associated fibroblasts (CAF); test: TGF-β-induced gene transcription, fibroblast activation markers (RT-PCR); assay type: cell-based, human
Procedure: FIGS. 9A-9C illustrates the effect of Compound 1 on Transcriptional Markers of Fibroblast Activation in Lung Cancer Associated Fibroblasts Treated with TGF-β. […] Lung cancer-associated fibroblasts (CAF, black bars) were treated with 10 ng/mL TGF-β after 1-hour pre-incubation with a range of Compound 1 concentrations, and cells were lysed 24 hours later. Indicated gene transcripts were assessed by RT-PCR relative to GAPDH. Data were normalized to expression after TGF-β-treatment in the presence of only DMSO. Data are presented as mean of 3 biological replicates, and error bars indicate standard deviation. The graphs are representative of at least 2 independent experiments. *P<0.05; ** P<0.01, ***P<0.001; ****P<0.0001 by student's t-test. Abbreviations: ACTA2, smooth muscle actin; CAF, cancer associated fibroblasts; DMSO, dimethyl sulfoxide; GAPDH, glyceraldehyde-3-phosphate dehydrogenase; NHLF, normal lung human fibroblasts; PAI-1, plasminogen activator inhibitor 1; RNA, ribonucleic acid; RT-PCR, reverse transcription polymerase chain reaction; […], transforming growth factor beta; TNC, tenascin C.
Cells were seeded (75,000 NHLF and lung CAF cells) into 12 well plates with RPMI+10% FBS and allowed to adhere overnight at 37° C., 5% CO2. After one day of serum starvation, cells were pre-treated for 1 hour with DMSO or Compound 1 at 30 μM, 10 μM, 3 μM, 1 μM, or 0.3 μM and then stimulated with 10 ng/mL TGF-β. The 24-hour Compound 1 treated samples were harvested for ribonucleic acid (RNA) extraction.
as §1, §2, §3, §4
The levels of phospho-c-Jun in NHLF and non-small cell lung CAF in response to TGF-β in the presence of DMSO or varying concentrations of Compound 1 were summarized in FIG. 7. Cells were treated with DMSO or Compound 1 for 1 hour prior to treatment with 10 ng/mL TGF-β for an additional 2 hours. Phospho-c-Jun levels were determined by western blot analysis and were normalized to DMSO treated samples. […] The relative expression of fibroblast activation markers in NHLF and lung CAF in response to TGF-β in the presence of DMSO or varying concentrations of Compound 1 were summarized in FIGS. 8A-8C and FIGS. 9A-9C. Cells were treated with DMSO or Compound 1 for 2 hours prior to treatment with 10 ng/mL TGF-β. The RNA expression was assessed 24 hours after TGF-β treatment.

[3] = 30 μM Compound 1, 10 ng/mL TGF-β, 24 hours
[4] = CAF stimulated with TGFβ, 10 μM Compound 1
[5] = CAF, 30 μM Compound 1, 10 ng/mL TGF-β, 24 hours

C[C@@H]1CC[C@@H](Nc2nc(NC(C)(C)C)ncc2C(N)=O)C[C@H]1O [Compound 1, 2-(tert-butylamino)-4-((1R,3R,4R)-3-hydroxy-4-methylcyclohexylamino)-pyrimidine-5-carboxamide]
COL1A1 reduced relative to TGF-β stimulation in the presence of DMSO alone [1, 3]: 56% | PAI-1 reduced relative to TGF-β stimulation in the presence of DMSO alone [1, 3]: 64% | TNC reduced relative to TGF-β stimulation in the presence of DMSO alone [1, 3]: 90% | Tenascin C upregulation with TGF-β treatment ([1]; Compound 1 at 30 μM, 15 μM or 5 μM): inhibited by all doses of Compound 1 tested | PAI-1 reduced relative to DMSO [2, 4]: PAI-1, ACTA2, and TNC were reduced 71%, | TNC reduced relative to DMSO [2, 4]: 77% | TNC induction, reduction from peak activation relative to baseline ([2]; CAF, 0.3 μM Compound 1, 10 ng/mL TGF-β, 24 hours): 34% | PAI-1 induction, reduction from peak activation relative to baseline ([2]; CAF, 1 μM Compound 1, 10 ng/mL TGF-β, 24 hours): 25% | ACTA2 induction, reduction from peak activation relative to baseline ([2]; CAF, 10 μM Compound 1, 10 ng/mL TGF-β, 24 hours): 71% | ACTA2 expression [2, 5]: lower than samples in the absence of TGF-β | PAI-1 induction, reduction from peak activation relative to baseline [2, 5]: 98% | TNC induction, reduction from peak activation relative to baseline [2, 5]: 97%
